Assay results reported in patent US5726325A, “Tricyclic compounds” (Kyowa Hakko Kogyo Co., Ltd., priority 1995, dated 1998).

Experiments:
detrusor muscle [1] = test: Test Example 2: relaxation of guinea pig bladder strips, rhythmical contraction induced by 15 mM KCl; format: cell-based, guinea pig (male albino Hartley); conditions: Cavia porcellus, concentration decreasing detrusor contraction by 50%
Description: (§1) The activity of Compound (I) as a smooth muscle relaxant which is useful as a therapeutic agent for urinary incontinence can be observed, for example, using the following tests. In the following Test Examples 1 and 2, "IC50 " means the concentration of a test compound which induces the decrease in the contraction of detrusor muscle by 50%.
(§2) Male albino Hartley guinea pigs (350-550 g) were used as test animals. Each animal was exsanguinated to death under pentobarbital sodium anesthesia. The lower abdominal cavity was opened and its bladder was positioned. The connective tissue and the fat tissue around the bladder were removed, and the bladder was cleaned. After two pelvic nerves on the surface of the abdominal side of the bladder were dissected, the bladder was taken out on the entrance of ureter. The bladder was washed with a Krebs-Henseleit buffer [composition (mM): NaCl 118, KCl 4.7, MgSO4 1.2, KH2 PO4 1.2, CaCl2 2.5, NaHCO3 25, and D-glucose 11.1], and then put on a gauze patch soaked in the buffer in a Petri dish. The dome and the trigone of the bladder were dissected and discarded. The back of the bladder was cut vertically in the middle with scissors, and the bladder was put flat on the gauze patch. The dome tip and the side of the trigone of the bladder were dissected and discarded, and the mucosa of the bladder was removed. The back of the bladder was cut vertically to get 6 strips which are ca. 2.0 mm wide and ca. 10 mm long.
(§3) One end of each strip was fixed on a plastic supporter rod, and the other end was fixed on a clip connected to a suture thread. The supporter was fixed in 20 ml of an organ bath and the suture thread connected to the clip was fixed on a force-displacement transducer (NIHON KODEN TB-611T). The tissue was suspended in a Krebs-Henseleit buffer, and the bath solution was warmed to 37° C. and bubbled with a gas mixture of 5% CO2 and 95% O2. The pH of the solution was adjusted to about 7.4. The transducer was connected to a polygraph (NIHON KODEN AP-621G), and the change of tension was recorded on a recorder (YOKOGAWA type 3066). The polygraph was graduated by 0.5 g/cm.
The effect of a smooth muscle relaxant varies with the concentration of KCl based on the difference of an action mechanism. In the following Test Example, KCl was used at a concentration different from that in Test Example 1.
A sample of the excised bladder was prepared in the same manner as in Test Example 1, and the tension of the preparation was measured. After the tension of the tissue was adjusted to be a steady state at 1 g, 15 mM KCl was applied. After the rhythmical contraction was confirmed to appear by KCl, the tissue was washed. Then, 15 mM KCl was applied again. After the rhythmical contraction took place constantly and the tissue reached the steady state, a test compound was applied by the cumulative method (half-logarithmic incremence). The contact time at each concentration was 30 minutes. The activity of the compound was expressed as the maximum relaxation rate (%) of the tension induced by the agonist.

detrusor muscle [2] = test: Test Example 1: relaxation of guinea pig bladder strips contracted with 50 mM KCl; format: cell-based, guinea pig (male albino Hartley); conditions: Cavia porcellus; contraction induced by 50 mM KCl; concentration decreasing detrusor contraction by 50%
Description: as §1, §2, §3
After the tissue was incubated in the buffer for 15 minutes without preloading, tension was added thereto for about one hour. The preloading tension added was 1.5 g and it was relaxed to about 1 g. The tissue was washed at intervals of 15 minutes and the tension was adjusted to 1.5 g just before washing. The tension of the tissue was adjusted to be a steady state at 1 g. After this equilibrium time, 50 mM KCl (the whole content in the bath) was added, and the tissue was washed 10 minutes later. KCl was added to the tissue at intervals of 30 minutes, followed by washing 10 minutes later, and KCl was applied repeatedly until the developed tension induced by KCl becomes constant. When the tissue was confirmed to contract constantly by the application of KCl and relax to the steady state after washing, 50 mM KCl was applied again. After the tissue reached the steady state and the base line was obtained, a test compound was applied by the cumulative method (half-logarithmic incremence). The contact time at each concentration was 30 minutes. The activity of the compound was expressed as the maximum relaxation rate (%) of the tension induced by the agonist.

bladder = test: Test Example 4: micturition contraction interval in rats under partial restraint, oral; format: in vivo, rat (male SD strain); conditions: Rattus norvegicus, 1 mg/kg oral, pre-administration = 100
Description: As a control compound, cromakalim was used.

SMILES | IC50 (detrusor muscle [1]) [µM] | IC50 (detrusor muscle [2]) [µM] | also measured
CC(O)(C(=O)Nc1ccc2c(c1)SCc1ccccc1C2=O)C(F)(F)F (stereo not shown) [Compound 41, 3-(3,3,3-Trifluoro-2-hydroxy-2-methylpropanoylamino)-6,11-dihydrodibenzo[b,e]thiepin-11-one] | 1.6 | 2.1 | 
COc1ccc(NC(=O)C(C)(O)C(F)(F)F)c2c1OCc1ccccc1C2=O (stereo not shown) [Compound 23] | 7.8 | > 10 | 
CC(O)(C(=O)Nc1ccc2c(c1)C(=O)c1cc(Br)ccc1-2)C(F)(F)F (stereo not shown) [Compound 13, 7-Bromo-2-(3,3,3-trifluoro-2-hydroxy-2-methylpropanoylamino)fluoren-9-one] | 48 | 3.5 | 
CC(O)(C(=O)Nc1cccc2ccc3sccc3c(=O)c12)C(F)(F)F (stereo not shown) [Compound 66, 5-(3,3,3-Trifluoro-2-hydroxy-2-methylpropanoylamino)-4H-benzo[4,5]cyclohepta[1,2-b]thiophen-4-one] | 2.1 | 1.4 | 
CC(O)(C(=O)Nc1ccc2c(=O)c3ccccc3ccc2c1)C(F)(F)F (stereo not shown) [Compound 62, 2-(3,3,3-Trifluoro-2-hydroxy-2-methylpropanoylamino)-5H-dibenzo[a,d]cyclohepten-5-one] | > 10 | 9.3 | 
Cc1ccc(NC(=O)C(C)(O)C(F)(F)F)c2c1OCc1ccsc1C2=O (stereo not shown) [Compound 26, 6-Methyl-9-(3,3,3-trifluoro-2-hydroxy-2-methylpropanoylamino)-4,10-dihydrothieno[3,2-c][1]-benzoxepin-10-one] | > 10 | 7.1 | 
C[C@](O)(C(=O)Nc1ccc2c(c1)C(=O)c1sccc1CO2)C(F)(F)F [Compound 39, (S)-8-(3,3,3-Trifluoro-2-hydroxy-2-methylpropanoylamino)-4,10-dihydrothieno[3,2-c][1]benzoxepin-10-one] | 2.6 | > 10 | 
CC1(C)Oc2ccc(C#N)cc2C(N2CCCC2=O)C1O (stereo not shown) [Cromakalim, cromakalim, reference compound] |  |  | response vs control in vivo at 1 mg/kg (bladder; 1 hr): 128%; response vs control in vivo at 1 mg/kg (bladder; 2 hr): 133%; response vs control in vivo at 1 mg/kg (bladder; 3 hr): 142%; response vs control in vivo at 1 mg/kg (bladder; 4 hr): 133%; response vs control in vivo at 1 mg/kg (bladder; 5 hr): 133%
CC(O)(C(=O)Nc1ccc2c(c1)[S+]([O-])Cc1ccccc1C2=O)C(F)(F)F (stereo not shown) [Compound 49, 5-Oxo-3-(3,3,3-trifluoro-2-hydroxy-2-methylpropanoylamino)-6,11-dihydrodibenzo[b,e]thiepin-11-one] | 4.1 | 7.8 | 
CC(O)(C(=O)Nc1ccc2c(c1)OCc1c(F)cccc1C2=O)C(F)(F)F (stereo not shown) [Compound 21, 7-Fluoro-3-(3,3,3-trifluoro-2-hydroxy-2-methylpropanoylamino)-6,11-dihydrodibenz[b,e]oxepin-11-one] | > 10 | 4.3 | 
CC(O)(C(=O)Nc1cccc2c1C(=O)c1ccoc1CS2)C(F)(F)F (stereo not shown) [Compound 42, 5(3,3,3-Trifluoro-2-hydroxy-2-methylpropanoylamino)-4,10-dihydrofuro[2,3-c][1]benzothiepin-4-one] | 1.5 | 4.7 | 
CC(O)(C(=O)Nc1ccc2c(c1)[S+]([O-])Cc1sccc1C2=O)C(F)(F)F (stereo not shown) [Compound 51, 9-Oxo-7-(3,3,3-trifluoro-2-hydroxy-2-methylpropanoylamino)-4,10-dihydrothieno[2,3-c][1]benzothiepin-4-one] | 5.7 |  | 
CC(O)(C(=O)Nc1ccc2c(c1)-c1ccccc1C2=O)C(F)(F)F (stereo not shown) [Compound 6, 3-(3,3,3-Trifluoro-2-hydroxy-2-methylpropanoylamino)fluoren-9-one] | 11.2 | 6.1 | 
CC(O)(C(=O)Nc1ccc2c(c1)SCc1occc1C2=O)C(F)(F)F (stereo not shown) [Compound 43, 7-(3,3,3-Trifluoro-2-hydroxy-2-methylpropanoylamino)-4,10-dihydrofuro[2,3-c][1]benzothiepin-4-one] | 2.1 | 3.5 | 
CC(O)(C(=O)Nc1ccc2c(c1)C(=O)c1ccccc1CO2)C(F)(F)F (stereo not shown) [Compound 3, 2-(3,3,3-Trifluoro-2-hydroxy-2-methylpropanoylamino)-6,11-dihydrodibenz[b,e]oxepin-11-one] | 1.8 | 2.2 | 
Cc1ccc(NC(=O)C(C)(O)C(F)(F)F)c2c1OCc1ccccc1C2=O (stereo not shown) [Compound 22] | > 10 | 4.2 | 
CC(O)(C(=O)Nc1ccc2c(c1)SCc1ccsc1C2=O)C(F)(F)F (stereo not shown) [Compound 45, 7-(3,3,3-Trifluoro-2-hydroxy-2-methylpropanoylamino)-4,10-dihydrothieno[3,2-c][1]benzothiepin-10-one] | 2.5 | > 10 | 
CC(O)(C(=O)Nc1ccc2c(=O)c3sccc3ccc2c1)C(F)(F)F (stereo not shown) [Compound 65, 7-(3,3,3-Trifluoro-2-hydroxy-2-methylpropanoylamino)-10H-benzo[5,6]cyclohepta[1,2-b]thiophen-10-one] | 2.3 | 4.6 | 
COc1ccc(NC(=O)C(C)(O)C(F)(F)F)c2c1OCc1ccsc1C2=O (stereo not shown) [Compound 27, 6-Methoxy-9-(3,3,3-trifluoro-2-hydroxy-2-methylpropanoylamino)-4,10-dihydrothieno[3,2-c][1]-benzoxepin-10-one] | > 10 | 4.8 | 
Cc1cc2c(cc1NC(=O)C(C)(O)C(F)(F)F)OCc1ccccc1C2=O (stereo not shown) [Compound 25, 2-Methyl-3-(3,3,3-trifluoro-2-hydroxy-2-methylpropanoylamino)-6,11-dihydrodibenz[b,e]oxepin-11-one] | > 10 | 2.2 | 
C[C@@](O)(C(=O)Nc1cccc2c1C(=O)c1sccc1CO2)C(F)(F)F [Compound 34, (R)-9-(3,3,3-Trifluoro-2-hydroxy-2-methylpropanoylamino)-4,10-dihydrothieno[3,2-c][1]benzoxepin-10-one] | 2.2 | 1.6 | 
CC(O)(C(=O)Nc1ccc2c(c1)SCc1sccc1C2=O)C(F)(F)F (stereo not shown) [Compound 47, 7-(3,3,3-Trifluoro-2-hydroxy-2-methylpropanoylamino)-4,10-dihydrothieno[2,3-c][1]benzothiepin-4-one] | 6.1 |  | 
C[C@@](O)(C(=O)Nc1ccc2c(c1)OCc1occc1C2=O)C(F)(F)F [Compound 38, (R)-7-(3,3,3-Trifluoro-2-hydroxy-2-methylpropanoylamino)-4,10-dihydrofuro[2,3-c][1]benzoxepin-4-one] | 0.9 | 13.4 | 
CC(O)(C(=O)Nc1ccc2c(=O)c3occc3ccc2c1)C(F)(F)F (stereo not shown) [Compound 68, 7-(3,3,3-Trifluoro-2-hydroxy-2-methylpropanoylamino)-10H-benzo[5,6]cyclohepta[1,2-b]furan-10-one] | 3.5 | > 10 | 
CC(O)(C(=O)Nc1ccc2c(c1)OCc1sccc1C2=O)C(F)(F)F (stereo not shown) [Compound 18, 7-(3,3,3-Trifluoro-2-hydroxy-2-methylpropanoylamino)-4,10-dihydrothieno[2,3-c][1]benzoxepin-4-one] | 2.1 | > 10 | 
CC(O)(C(=O)Nc1cccc2c1C(=O)c1ccsc1C[S+]2[O-])C(F)(F)F (stereo not shown) [Compound 50, 9-Oxo-5-(3,3,3-trifluoro-2-hydroxy-2-methylpropanoylamino)-4,10-dihydrothieno[2,3-c][1]benzothiepin-4-one] | 6.1 |  | 
